Reference: paper PMC6444347 (Nature chemistry, 2019)
Numbering of substitutions follows the chain as printed.

How the values were obtained:
PBP4 [1] = target: T1, PBP4 (Staphylococcus aureus, UniProt P72355); assay: fluorogenic D,D-transpeptidation assay with Rf470DL, dose-response; type: biochemical
T1 sequence (P72355 25-431): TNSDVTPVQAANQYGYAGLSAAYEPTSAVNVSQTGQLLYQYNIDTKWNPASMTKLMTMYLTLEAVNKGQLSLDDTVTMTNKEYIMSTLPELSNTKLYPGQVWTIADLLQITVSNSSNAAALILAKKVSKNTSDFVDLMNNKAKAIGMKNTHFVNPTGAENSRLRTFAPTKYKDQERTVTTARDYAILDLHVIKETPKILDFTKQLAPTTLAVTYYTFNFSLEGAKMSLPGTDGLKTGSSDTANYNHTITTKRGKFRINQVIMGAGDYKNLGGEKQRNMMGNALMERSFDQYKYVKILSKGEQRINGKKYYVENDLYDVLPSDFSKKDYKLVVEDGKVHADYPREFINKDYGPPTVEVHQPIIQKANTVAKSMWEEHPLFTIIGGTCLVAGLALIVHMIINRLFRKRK

PBP4 [2] = target: T2, PBP4 (Staphylococcus aureus, UniProt A0A0H2WY27); assay: Nitrocefin hydrolysis; type: biochemical
T2 sequence (A0A0H2WY27 25-431): T1 sequence (P72355 25-431) with L210H

| SMILES | IC50 (PBP4 [1]) [µM] | Nitrocefin hydrolysis (β-lactamase activity) competition assay (PBP4 [2]) |
| --- | --- | --- |
| CO[C@@]1(NC(=O)Cc2cccs2)C(=O)N2C(C(=O)O)=C(COC(N)=O)CS[C@@H]21 [Cefoxitin] | ~2.34 |  |
| O=C(Cc1cccs1)N[C@@H]1C(=O)N2C(C(=O)O)=C(/C=C/c3ccc([N+](=O)[O-])cc3[N+](=O)[O-])CS[C@H]12 [Nitrocefin] |  | in the presence of Cefoxitin or Carbenicillin, Nitrocefin hydrolysis was strongly inhibited |
